Data from patent publication US5942494A, “Stimulation of gene expression and synthesis of heat shock protein 72/73 (HSP 70)” (The Trustees of Columbia University in the City of New York, priority 1996, dated 1999).
Square brackets hold non-standard residues; d marks the D form. Peptide text beside a SMILES is read from it. Nle = CCCC[C@H](N)C(=O)O

Key:
[1] = tested on: HepG2 cells; assay: Total incorporation of radiolabel (TCA cpm) as indicator of cell toxicity, HepG2; assay type: cell-based, human; conditions: ALLN 10 μg/ml, HepG2
Experimental: (§1) HepG2 cells were preincubated for 4 hours in serum-free MEM and then radiolabeled with ^3 H-Leucine (150 μCi/ml) in a serum-free, leucine-free medium. Preincubation and labeling media each contained either 1.5% bovine serum albumin (BSA) alone, or BSA plus ALLN (40 μg/ml except as otherwise indicated), or BSA plus other protease inhibitors at concentrations indicated in the figure legends. At the indicated times, cells were removed from the 37° C. incubator and placed on ice, washed with cold phosphate-buffer saline (PBS) twice and lysed with lysis buffer containing 1% Triton X-100 (TX100), 1% deoxycholic acid (DOC) and 0.1% SDS in PBS containing proteinase inhibitors: 2 mM phenylmethylsulfonyl fluoride (PMSF); 2 μg/ml ALLN; 2 μg/ml leupeptin; and 2 μg/ml aprotinin. After a 30 min. incubation with lysis buffer at 4° C., the lysates were centrifuged at 14,000 g in a microcentrifuge for 5 min., and the supernatants were adjusted to 1% SDS concentration and boiled for 5 min. to denature the proteins. 1% TX100 was then added to dilute the lysates to a final concentration of 0.1% SDS. Cell lysates containing equal amounts of trichloroacetic acid (TCA)-insoluble radioactivity were used for immunoprecipitations by incubating with individual monoclonal antibody (1 μg/ml) for 2.5 hours at 4° C. Protein-A Sepharose 4B was added afterwards and the lysates incubated for another 1.5 hours at 4° C. to collect the immunocomplexes. After washing four times with 1×NET buffer (containing 0.5% TX100, 0.1% SDS), the immunocomplexes were mixed with sample buffer and boiled for 5 min. Following centrifugation, the supernatants were aliquoted for scintillation counting and for 3-15% gradient polyacrymide gel electrophoresis (SDS-PAGE) . The gels were later subjected to fluorography. All values are presented as the mean ± S.D. from three individual experiments except as otherwise indicated.

[2] = tested on: Hsp70; assay: Hsp70 level in human microvascular endothelial cell line; assay type: cell-based; conditions: ALLN 40 μg/ml, 4 hours, 30 min. labeling
Experimental: ALLN induces Hsp70 protein levels in HepG2 cells in a dose-dependent manner. The effect of ALLN on the protein levels of Hsp70 was analysed by denaturing immunoprecipitation of extracts of [^3 H]-leucine radiolabeled HepG2 cells which had been pre-treated with ALLN for 4 hours at different doses. Denaturing immunoprecipitation was chosen because Hsp70 is a major cytosolic chaperone protein and it is co-immunoprecipitated with a number of other proteins under non-denaturingconditions (Beckmann, et al., 1990; Zhou, et al., 1995). […] This may be due to a low constitutive level of expression of Hsp73 (Hsp70) in HepG2 cells similar to that reported for other cell types in the absence of stress (Welch, et al., 1984). Treatment with ALLN was associated with a marked increase in Hsp70 level, which was further confirmed as Hsp72 (the inducible form) by Western blot (data not shown).

[3] = tested on: human microvascular endothelial cell line; assay: TCA-cpm measurement in human microvascular endothelial cell line; assay type: cell-based; conditions: ALLN 40 μg/ml, 4 hours, 30 min. labeling
[4] = tested on: proteasomes; conditions: Rock, et al., 1994; cited from earlier work
[5] = tested on: Hsp70; assay: Hsp70 levels by denaturing immunoprecipitation of [3H]-leucine radiolabeled HepG2 cells; assay type: cell-based, human; conditions: for Hsp70 levels after removal of ALLN: 4-hour preincubation
Experimental: The HepG2 cell culture conditions were maintained as previously described (Dixon, et al., 1991). The cells were seeded into collagen-pre-coated dishes or six-well tissue culture plates and grown in complete medium containing minimum essential medium (MEM) with 0.1 mM nonessential amino acids, 1.0 mM sodium pyruvate, penicillin/streptomycin, and 10% fetal bovine serum. Cells were fed fresh complete medium every 3 days and maintained in a 5% CO2 incubator. All experiments were performed by using exponentially growing cells at 90-95% confluency. For heat shock treatment, the dishes were sealed with Parafilm and immersed in a water bath at 42° C. for indicated durations of time. Cells were incubated with ALLN alone at indicated concentrations or combined with other chemicals at 37° C. Cells were also incubated with different protease inhibitors alone at indicated concentrations or combined with other chemicals at 37° C.
as §1
Denaturing immunoprecipitation was chosen because Hsp70 is a major cytosolic chaperone protein and it is co-immunoprecipitated with a number of other proteins under non-denaturingconditions (Beckmann, et al., 1990; Zhou, et al., 1995).

[6] = tested on: 3-hydroxy-3-methylglutaryl-coenzyme A (HMG-CoA) reductase; conditions: Inoue, et al., 1991; cited from earlier work
[7] = tested on: Hsp60; assay: Immunoprecipitation of Hsp60 from radiolabeled HepG2 cells; assay type: cell-based, human; conditions: HepG2, ALLN 4 hours
Experimental: FIGS. 7A-7B: Effects of ALLN on the biosynthesis of other members of Hsp family and related proteins. HepG2 cells were pre-treated and radiolabeled with or without ALLN for 4 hours as described in FIG. 1. Cell lysates were used for SDS-PAGE (A), or for immunoprecipitation with anti-Hsp25, -Hsp27, -Hsp60, -Hsp70, -Hsp86, -Hsp90, -Hsp104, -Bip, or -albumin antibodies respectively (1 μg/ml) (B). Because the anti-Hsp25, -Hsp27, -Hsp60 and Hsp90 antibodies are from a rat source, rabbit anti-rat IgG antibody was added after the first incubation, and the incubation was extended for another 1 hour at 4° C. before collection with protein A-Sepharose.Immunoprecipitates were loaded for SDS-PAGE and aliquoted for scintillation counting and plotting. Each value was presented as mean ±S.D. from three individual culture dishes.
HepG2 cells were preincubated for 4 hours in serum-free MEM and then radiolabeled with ^3 H-Leucine (150 μCi/ml) in a serum-free, leucine-free medium. […] Cell lysates containing equal amounts of trichloroacetic acid (TCA)-insoluble radioactivity were used for immunoprecipitations by incubating with individual monoclonal antibody (1 μg/ml) for 2.5 hours at 4° C. […]

CCCC[C@@H](C=O)NC(=O)[C@H](CC(C)C)NC(=O)[C@H](CC(C)C)NC(C)=O [ALLN, N-acetyl-leucyl-leucyl-norleucinal] (Ac-Leu-Leu-[Nle]-aldehyde)
Cell total incorporation of radiolabel (TCA cpm, an indicator of cell toxicity) [1]: did not change significantly | Increment of Hsp70 level [2]: 35 fold | TCA-cpm measurement [3]: no change | Inhibition of proteasomes [4]: potent inhibitors | Hsp70 levels after removal of ALLN ([5]; end of a 2-hour wash): 25 fold | Hsp70 levels after removal of ALLN ([5]; end of a 6-hour wash): 8 fold | Hsp70 levels after removal of ALLN ([5]; end of an 8-hour wash): 4 fold | Increment of newly synthesized Hsp70 levels compared with untreated cells ([5]; 30 min. labeling, data from several experiments): ~30 fold | Hsp70 levels induced ([5]; ALLN 10 μg/ml, 4 hours pre-treatment, HepG2): more than 9 fold | Increase of rate of incorporation of [3H]-leucine into Hsp70 ([5]; ALLN 40 μg/ml 4 hours preincubation, labeling 10-60 min, every time point): about 25 fold | Induction of Hsp70 by protease inhibitors ([5]; HepG2, 4 hours pre-treatment, ALLN, ALLM 40 μg/ml, leupeptin, pepstatin A 50 μg/ml, E-64d 25 μg/ml, PMSF 1 mM, aprotinin 100 KIU/ml, Benz 1 mM, CIP 200 μM): significantly induce | Induction of Hsp70 levels above baseline ([5]; HepG2 cells and human endothelial cells, maximal induction): up to 30 fold | Protection of HMG-CoA reductase [6]: protected | Effect on Hsp60 [7]: no effects
